Data on two compounds can be found in PubChem BioAssay AID1994 (Broad Institute, 2009).

Results filed as inconclusive are left out. Calls of active or inactive are those of the source. How the calls were made is not given here. Where only a bound is given, the exact number is not on record here.

In the test the test system is H4 cells, PrP 5'UTR luciferase reporter translation. Nature of the test: prion protein stem-loop luciferase translation blockers – luminescence, dose response (AID 1994).

As for `C#CCOCCOCCOCCNc1nc(N2CCN(C(=O)CCCCCCCCCCNC(=O)[C@H](CO)n3cc(CCCSC)nn3)CC2)nc(N2CCN(C(=O)CCCCCCCCCCNC(=O)[C@H](CCCCN)n3cc(C[C@@H](C)CC)nn3)CC2)n1`, the EC50 was > 12000 nM (inactive).

In the case of `C=C(C=O)CC1CC(O)[C@]2(C)OC3CC4OC5C[C@]6(C)O[C@]7(C)CCC8OC9C[C@]%10(C)OC%11C(C)=CC(=O)OC%11CC%10OC9C[C@@H](C)C8OC7CC6O[C@]5(C)CC5OC5C4OC3CC2O1` (some centres not stated), the EC50 was 1580 nM.
